What all share (assay): NCI anticancer screen, dose series, 48 h
The subject of experiment [1] is CCRF-CEM leukemia.
Experiment [2] deals with OVCAR-4 ovarian.
Experiment [3] has as its system OVCAR-8 ovarian.
Experiment [4] deals with HL-60(TB) leukemia.
Experiment [5] concerns A498 renal.
The test system of experiment [6] is SN12C renal.
The test system of experiment [7] is NCI-H460 lung.
For experiment [8], the system named is A549 NSCLC.
Experiment [9] deals with T-47D breast.
Experiment [10] deals with PC-3 prostate.

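Cells were grown in 96-well plates and exposed to each compound for 48 hours at five concentrations; endpoints were interpolated linearly between bracketing concentrations, or set to the highest concentration if not reached. At the GI50, growth is halved. Definition used: TGI = concentration required for complete inhibition of growth.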

Take `C=CC(=O)NCNC(=O)C=C`: the TGI in experiment [1], in [2], in experiment [3], in experiment [4], in experiment [5] and in experiment [6] was above 100 µM throughout. In addition, the TGI in experiment [7] and in experiment [8] was above 100 µM throughout.

As for `COc1cc(/C=C/C(=O)c2ccc(F)cc2)ccc1OCCCCCOc1cc2c(cc1OC)C(=O)N1CCCC1C=N2` (stereo not drawn), the GI50 is below 0.01 µM in [1]; 0.0265 µM in experiment [2]; 0.0253 µM in experiment [3]; 0.0405 µM in experiment [4]; 0.0231 µM in experiment [9]; 0.138 µM in experiment [5]. For the same compound, the results for the GI50 in experiment [10], in [6] and in experiment [7] were 0.0208 µM, 0.0335 µM and below 0.01 µM, respectively. Also, the TGI in experiment [1] was 0.0258 µM; in experiment [2] it was above 100 µM; in [3] it was 3.28 µM; in experiment [9], 1.19 µM; in experiment [5] it was 0.331 µM; in [10] it was 0.215 µM. Further, the results for the TGI in experiment [6] and in experiment [7] were 2.37 µM and 0.0179 µM, respectively.

`Cc1cc(C)c(NC(=O)/C=C/c2ccccc2)c(C)c1`: the TGI in [1], in [2], in [3], in experiment [4], in experiment [10] and in experiment [7] was above 100 µM throughout. In experiment [8], this compound had a TGI above 100 µM.

`OCC1OC(n2cnc3c(SCc4ccccc4)ncnc32)C(O)C1O` (stereo not drawn): the TGI is 3.55 µM in [1]; above 100 µM in experiment [2]; 37.4 µM in experiment [3]; 8.52 µM in experiment [4]; above 100 µM in experiment [9]; above 31.4 µM in experiment [5]. Besides, the TGI in experiment [10], in experiment [6], in experiment [7] and in experiment [8] was above 100 µM throughout.

Consider `CC(C)OC(=O)NNc1cccc(Cl)c1`, for which the TGI in [1], in experiment [3], in [4], in experiment [9], in experiment [5] and in [10] was above 100 µM each time. Besides, the TGI in experiment [6], in [7] and in [8] was above 100 µM throughout.

`Oc1c(Cl)c(Cl)c(O)c(CCNc2nccs2)c1Cl`: the TGI in experiment [1] is above 100 µM; in experiment [2], above 100 µM; in [3] it was 47.2 µM; in [4], above 100 µM; in experiment [9] it was 34.8 µM; in [10], 45.1 µM. Moreover, the TGI worked out at 49.2 µM in [6], 41.1 µM in [7] and 49.8 µM in experiment [8].

For the compound `Cc1cccc(N=C/C=C(\Cl)c2ccc3ccccc3c2)c1`, the TGI is 41.2 µM in experiment [2]; 43 µM in [3]; 38.5 µM in experiment [4]; 37.2 µM in experiment [9]; above 100 µM in experiment [5]; 53.1 µM in experiment [10]. Further, the TGI in [6] is 41.1 µM; in experiment [7], above 80.9 µM; in [8], above 100 µM.

As for `CN1CCN(c2ccc3[nH]c(C4=C(O)C(=O)[C@@H]5C(=C4O)N=C(CO)N5C)nc3n2)CC1`, the TGI in experiment [1], in [2], in experiment [3], in [4], in experiment [9] and in experiment [10] was above 100 µM in each case. The TGI in experiment [6], in experiment [7] and in experiment [8] was above 100 µM throughout.

Turning to `CC(=O)N=c1ccc2nc(N)nn(O)c-2c1`, the TGI in experiment [1], in experiment [2], in experiment [3], in experiment [4], in experiment [9] and in [5] was above 100 µM in each case. In addition, the TGI in experiment [10], in [6], in experiment [7] and in experiment [8] was above 100 µM in each case.

As for `CCCCCCCCCC/C=C/C=O`, the TGI in [1], in experiment [3], in experiment [4], in experiment [5], in [6] and in [7] was above 100 µM each time. In addition, the TGI in experiment [8] is above 100 µM.

Consider `C/C(=N\O)C1CC2C=C(C#N)C1N(Cc1ccccc1)C2` (stereo not drawn), for which the TGI in [1], in experiment [3], in experiment [4], in experiment [9], in [5] and in [10] was above 100 µM throughout. Also, the TGI in experiment [6], in [7] and in experiment [8] was above 100 µM in each case.

Take `O=C(c1ccccc1)C(Nc1ccc2ccccc2c1)c1ccccc1` (stereo not drawn): the TGI in experiment [1] is 51.2 µM; in [2], above 100 µM; in experiment [3], above 100 µM; in experiment [4], 36.4 µM; in experiment [9], above 100 µM; in [5], 69.6 µM. Besides, the TGI in experiment [10] is 98.7 µM; in experiment [6], above 100 µM; in experiment [7], above 100 µM; in experiment [8], above 100 µM.

As to `COc1cc2cc3c4cc(OC)c(OC)cc4cc[n+]3c(C)c2cc1OC`, the TGI in experiment [1], in experiment [2], in experiment [3], in experiment [4], in experiment [9] and in experiment [5] was above 100 µM throughout. Also, the TGI in experiment [10], in experiment [6], in experiment [7] and in experiment [8] was above 100 µM in each case.

Take `COCC12CCC(OC)C34C5CC6(O)C(OC)C=C(C5C6OC(=O)c5ccccc5)C(C(OC)C13)C4N(C)C2` (stereo not drawn): the TGI in [1], in experiment [2], in experiment [3], in experiment [4], in experiment [9] and in experiment [5] was above 100 µM each time. Besides, the TGI in experiment [10], in experiment [6], in [7] and in [8] was above 100 µM in each case.

With `CCP(=O)(CC)C(Cl)(Cl)C(O)C(Cl)(Cl)Cl` (stereo not drawn), the TGI in experiment [1], in experiment [2], in [3], in experiment [4], in experiment [9] and in experiment [10] was above 100 µM throughout. For the same compound, the TGI in experiment [6], in [7] and in [8] was above 100 µM each time.

For the compound `[N-]=[N+]=CC(=O)OCC1NC(=O)C(COC(=O)C=[N+]=[N-])NC1=O` (stereo not drawn), the TGI in experiment [1], in experiment [2], in experiment [3], in experiment [4], in [9] and in [5] was above 100 µM in each case. Moreover, the TGI in [10], in [6], in experiment [7] and in experiment [8] was above 100 µM each time.

(Values after PubChem BioAssay (NCI).)
